The text below walks through data of PMC12677699, “Utilizing Proteolytic‐Resistant Nano‐Short Peptide Based on Naphthyl Tail‐Anchored to Combat Bacterial Infections” (Advanced Science, 2025).

The data set is described as follows: Dynamic light scattering and zeta potential. The format is physicochemical. As to conditions: 16 × 10^−6 M in deionized water; n = 3. How it is done: N4 was diluted to 16 × 10^−6 M using deionized water and added to disposable plastic cuvettes, and the kinetic diameters was determined using a Zetasizer Nano Z90 (Malvern Instruments, Worcestershire, U.K.).^[ [29] ^] N4 was diluted to 16 × 10^−6 M using deionized water and added to the electrode cups, and the zeta potential was determined using a Zetasizer Nano Z90 (Malvern Instruments, Worcestershire, UK).^[ [29] ^]

Consider `N=C(N)NCCC[C@H](NC(=O)[C@@H](CCCNC(=N)N)NC(=O)[C@H](Cc1cccc2ccccc12)NC(=O)[C@H](Cc1cccc2ccccc12)NC(=O)[C@H](Cc1cccc2ccccc12)NC(=O)[C@@H](N)Cc1cccc2ccccc12)C(=O)N[C@@H](CCCNC(=N)N)C(=O)N1CCC[C@H]1C(=O)O` (stereo in doubt) [Peptide N4], for which the zeta potential was determined as 6.99 mV.
